Results on 6 molecules are retold here after patent US20210047324A1 (Aptinyx Inc., priority 2018, published 2021).

Data set [1] can be described thus: Plasma stability (Rat). Conditions: after 60 minutes. Type of data set: in vitro ADME. The procedure: (§1) Plasma stability of disclosed compounds was investigated. The following table indicates the percent of compound remaining after 60 minutes.
Data set [2] in a line: Plasma stability (Human). Type of data set: in vitro ADME. As to conditions: after 60 minutes. The procedure: as §1
Data set [3] in a line: IV pharmacokinetics in Sprague Dawley rats. It is filed as in vivo. Conditions: Sprague-Dawley, rat, in vivo, iv, 2 mg/kg, normal saline; for Cmax: read-out: Cmax; for Vd: read-out: Vss. The procedure:
Sprague Dawley rats were dosed intravenously using a normal saline formulation containing 2 mg/kg of the compounds identified in the below table. The table below summarizes the results of the IV pharmacokinetics.

Data set [4] in a line: Oral pharmacokinetics in Sprague Dawley rats (plasma, brain, CSF). It is filed as in vivo. As to conditions: rat, 10 mg/kg; for Tmax / AUC(0-t) / bioavailability / Cmax: Sprague-Dawley, po, plasma; for Tmax / AUC(0-t) / Cmax / CSF Cmax / Brain Cmax: per os; for Tmax: read-out: Tmax; for bioavailability: per os 10 mg/kg; for Cmax: read-out: Cmax. Here is the method:
In another experiment, Sprague Dawley rats were dosed per os (oral gavage) using a normal saline formulation containing 10 mg/kg of the compounds identified in the table below. Plasma, brain, and CSF samples were analyzed at various time points over a 24 hour period. The table below summarizes the results of the oral pharmacokinetics, where the first three values (Tmax, Cmax and AUClast) are plasma values.

Data set [5] can be described thus: Microsomal stability (Human). Type of data set: in vitro ADME. Conditions: after 60 minutes. Here is the method: (§2) Microsomal stability of disclosed compounds was investigated. The following table indicates the percent of compound remaining after 60 minutes.
For data set [6], the target named is T1, NMDAR2B (Homo sapiens, UniProt Q13224).
T1 construct: expressed in transfected cells; host or cells: HEK cells (membrane extract)
Briefly: NMDAR agonist assay, [3H]MK-801 binding, NMDAR2B expressing HEK cell membranes. As to conditions: 50 μM glutamate; for EC50: read-out: NMDAR2B B: log EC50 (converted); for Emax / NMDAR2B A: % maximal [3H]MK-801 binding relative to 1 mM glycine: relative to 1 mM glycine; for Emax: read-out: NMDAR2B A: % maximal [3H]MK-801 binding relative to 1 mM glycine. Type of data set: biochemical. The procedure: (§3) Assays were conducted as described by Moskal et al., “GLYX-13: a monoclonal antibody-derived peptide that acts as an N-methyl-D-aspartate receptor modulator,” Neuropharmacology, 49, 1077-87, 2005. These studies were designed to determine if the test compounds act to facilitate NMDAR activation in NMDAR2A, NMDAR2B, NMDAR2C or NMDAR2D expressing HEK cell membranes as measured by increases in [^3H]MK-801 binding.
(§4) In the assay, 300 μg of NMDAR expressing HEK cell membrane extract protein was preincubated for 15 minutes at […] in the presence of saturating concentrations of glutamate (50 μM) and varying concentrations of test compound (1×10^−15M-1×10^−7M), or 1 mM glycine. Following the addition of 0.3 μCi of [3H]MK-801 (22.5 Ci/mmol), reactions were again incubated for 15 minutes at 25° C. (nonequilibrium conditions). Bound and free [3H]MK-801 were separated via rapid filtration using a Brandel apparatus.
(§5) In analyzing the data, the DPM (disintegrations per minute) of [3H]MK-801 remaining on the filter were measured for each concentration of test compound or for 1 mM glycine. The DPM values for each concentration of a ligand (N=2) were averaged. The baseline value was determined from the best fit curve of the DPM values modeled using the GraphPad program and the log(agonist) vs. response (three parameters) algorithm was then subtracted from all points in the dataset. The % maximal [^3H]MK-801 binding was then calculated relative to that of 1 mM glycine: all baseline subtracted DPM values were divided by the average value for 1 mM glycine. The EC50 and % maximal activity were then obtained from the best fit curve of the % maximal [3H]MK-801 binding data modelled using the GraphPad program and the log(agonist) vs. response (three parameters) algorithm.
(§6) The tables below summarize the results for the wild type […] NMDAR2A, NMDAR2B, NMDAR2C, and NMDAR2D, and whether the compound is not an agonist (−), is an agonist (+), or is a strong agonist (++), where column A is based on the % maximal [3H]MK-801 binding relative to 1 mM glycine (−=0; <100%=+; and >100%=++); and column B is based on log EC50 values (0=−; ≥1×10^−9 M (e.g., −8)=+; and <1×10^−9 M (e.g., −10)=++).

The nature of data set [7]: Microsomal stability (Rat). As to conditions: after 60 minutes. Type of data set: in vitro ADME. Here is the method:
as §2

Data set [8] addresses T2, NMDAR2A (Homo sapiens, UniProt Q12879).
T2 construct: expressed in transfected cells; host or cells: HEK cells (membrane extract)
Briefly: NMDAR agonist assay, [3H]MK-801 binding, NMDAR2A expressing HEK cell membranes. It is filed as biochemical. As to conditions: 50 μM glutamate; for EC50: read-out: NMDAR2A B: log EC50 (converted); for Emax: 0.25 h, read-out: NMDAR2A A: % maximal [3H]MK-801 binding relative to 1 mM glycine; for Emax / NMDAR2A A: % maximal [3H]MK-801 binding relative to 1 mM glycine: relative to 1 mM glycine. On the set-up: key to NMDAR2A B: log EC50: 0=−; ≥1×10^−9 M (e.g., −8)=+; <1×10^−9 M (e.g., −10)=++. The procedure: as §3, §4, §5, §6

T2 sequence (Q12879 23-1464, species assumed, other chains not shown): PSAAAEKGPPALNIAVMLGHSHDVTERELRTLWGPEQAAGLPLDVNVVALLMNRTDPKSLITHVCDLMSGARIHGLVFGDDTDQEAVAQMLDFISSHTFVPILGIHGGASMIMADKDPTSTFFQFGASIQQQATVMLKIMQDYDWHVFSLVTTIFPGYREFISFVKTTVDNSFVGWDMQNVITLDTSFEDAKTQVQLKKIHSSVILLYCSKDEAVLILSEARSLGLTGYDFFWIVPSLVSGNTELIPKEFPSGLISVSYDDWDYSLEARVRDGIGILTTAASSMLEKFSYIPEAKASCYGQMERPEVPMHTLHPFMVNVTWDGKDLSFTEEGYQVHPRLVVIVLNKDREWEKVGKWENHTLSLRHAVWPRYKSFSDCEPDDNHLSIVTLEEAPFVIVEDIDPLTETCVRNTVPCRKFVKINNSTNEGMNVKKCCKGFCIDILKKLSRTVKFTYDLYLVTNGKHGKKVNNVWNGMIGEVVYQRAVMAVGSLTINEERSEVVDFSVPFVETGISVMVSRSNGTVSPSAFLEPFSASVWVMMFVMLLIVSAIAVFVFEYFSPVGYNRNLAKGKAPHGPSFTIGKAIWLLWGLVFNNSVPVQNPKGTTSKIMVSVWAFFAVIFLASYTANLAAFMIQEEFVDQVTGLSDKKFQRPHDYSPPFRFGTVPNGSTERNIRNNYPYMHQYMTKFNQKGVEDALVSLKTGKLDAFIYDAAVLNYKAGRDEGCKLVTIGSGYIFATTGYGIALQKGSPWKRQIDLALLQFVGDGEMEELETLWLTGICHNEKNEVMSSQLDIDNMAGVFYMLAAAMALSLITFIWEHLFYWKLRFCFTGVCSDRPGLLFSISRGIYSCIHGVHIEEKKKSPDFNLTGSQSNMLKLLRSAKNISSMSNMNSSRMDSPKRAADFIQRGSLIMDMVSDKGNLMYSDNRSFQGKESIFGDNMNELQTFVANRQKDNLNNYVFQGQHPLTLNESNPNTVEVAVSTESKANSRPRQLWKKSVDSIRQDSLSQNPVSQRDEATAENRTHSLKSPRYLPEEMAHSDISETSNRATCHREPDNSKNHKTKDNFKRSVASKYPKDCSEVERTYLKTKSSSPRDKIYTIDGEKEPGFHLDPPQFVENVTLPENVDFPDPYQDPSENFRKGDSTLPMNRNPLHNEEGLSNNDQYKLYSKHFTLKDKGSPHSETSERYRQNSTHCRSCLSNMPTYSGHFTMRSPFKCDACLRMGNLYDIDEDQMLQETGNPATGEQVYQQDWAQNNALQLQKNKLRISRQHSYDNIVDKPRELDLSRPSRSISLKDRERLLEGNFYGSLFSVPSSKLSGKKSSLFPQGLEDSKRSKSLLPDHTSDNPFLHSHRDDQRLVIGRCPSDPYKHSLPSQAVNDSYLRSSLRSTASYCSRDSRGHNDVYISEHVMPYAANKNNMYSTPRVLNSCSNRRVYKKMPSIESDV
T1 sequence (Q13224 27-1484, species assumed, other chains not shown): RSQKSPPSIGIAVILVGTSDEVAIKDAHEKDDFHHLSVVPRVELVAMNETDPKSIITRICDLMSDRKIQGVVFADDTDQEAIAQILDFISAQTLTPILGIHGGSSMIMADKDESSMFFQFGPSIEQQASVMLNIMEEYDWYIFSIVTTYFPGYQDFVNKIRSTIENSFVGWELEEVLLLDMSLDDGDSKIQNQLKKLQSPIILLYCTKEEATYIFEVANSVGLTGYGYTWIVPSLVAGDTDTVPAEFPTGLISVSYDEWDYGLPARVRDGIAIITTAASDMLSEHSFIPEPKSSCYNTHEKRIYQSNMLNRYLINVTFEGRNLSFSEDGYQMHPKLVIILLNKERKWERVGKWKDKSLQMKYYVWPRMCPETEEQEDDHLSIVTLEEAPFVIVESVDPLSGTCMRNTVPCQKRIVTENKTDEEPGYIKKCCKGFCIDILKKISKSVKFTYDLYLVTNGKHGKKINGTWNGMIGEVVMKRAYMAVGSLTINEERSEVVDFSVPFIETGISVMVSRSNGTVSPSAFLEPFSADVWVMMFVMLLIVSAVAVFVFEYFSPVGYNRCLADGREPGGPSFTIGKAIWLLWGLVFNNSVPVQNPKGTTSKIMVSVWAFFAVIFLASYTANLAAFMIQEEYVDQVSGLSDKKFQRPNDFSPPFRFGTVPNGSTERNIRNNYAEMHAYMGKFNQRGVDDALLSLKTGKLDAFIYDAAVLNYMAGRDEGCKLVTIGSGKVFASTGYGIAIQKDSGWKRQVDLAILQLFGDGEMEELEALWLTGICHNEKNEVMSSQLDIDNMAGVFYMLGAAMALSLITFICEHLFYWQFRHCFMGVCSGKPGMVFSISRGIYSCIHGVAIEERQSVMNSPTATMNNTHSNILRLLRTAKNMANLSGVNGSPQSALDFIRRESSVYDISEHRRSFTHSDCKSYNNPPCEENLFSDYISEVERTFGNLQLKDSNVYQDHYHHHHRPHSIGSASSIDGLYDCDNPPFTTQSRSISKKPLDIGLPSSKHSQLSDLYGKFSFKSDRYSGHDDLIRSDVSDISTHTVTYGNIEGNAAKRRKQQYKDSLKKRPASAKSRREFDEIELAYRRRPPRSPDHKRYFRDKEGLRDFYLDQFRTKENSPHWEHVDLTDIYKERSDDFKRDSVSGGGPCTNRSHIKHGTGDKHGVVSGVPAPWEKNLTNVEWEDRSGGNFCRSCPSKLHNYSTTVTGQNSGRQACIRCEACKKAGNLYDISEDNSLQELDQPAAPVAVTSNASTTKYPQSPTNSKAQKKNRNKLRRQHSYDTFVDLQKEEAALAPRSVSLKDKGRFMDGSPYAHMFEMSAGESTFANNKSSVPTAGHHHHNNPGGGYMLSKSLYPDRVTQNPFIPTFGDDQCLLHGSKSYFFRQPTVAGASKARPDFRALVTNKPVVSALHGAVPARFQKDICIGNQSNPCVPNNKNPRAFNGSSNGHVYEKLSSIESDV

The term AUC(0-t) denotes the area under the concentration-time curve up to a stated or last time point. What is called clearance is the volume of plasma or blood freed of the substance per unit of time. For orientation: half-life means the time needed for the level to fall by half in the phase considered. As a reminder, the Cmax is the highest concentration seen after dosing. As a reminder, the Tmax is the time from dosing to the highest level. As usually defined, the bioavailability is dose-corrected exposure relative to a reference, in per cent. As a reminder, the EC50 is the concentration needed to bring the measured effect to its halfway point. As for `CN1CC=CCC2(CCCN2Cc2ccccc2)C1=O` (single isomer, unassigned) [GT-1, 1-benzyl-7-methyl-1,7-diazaspiro[4.6]undec-9-en-6-one], the “Plasma (Rat): percent of compound remaining” value in data set [1] came out at 96%. In addition, the “Plasma (Human): percent of compound remaining” value in data set [2] was 101%. In data set [3], the AUC(0-t) stood at 210 ng·h/mL, the clearance came to 157 mL/min/kg, the half-life is 39.6 min and the Cmax turned out to be 421 ng/mL. In addition, in data set [3], the Vd turned out to be 6.5 L/kg. Further, in data set [4], the Tmax came out at 34.8 min, the AUC(0-t) turned out to be 9.16 ng·h/mL, the bioavailability worked out at 1% and the Cmax was 23.3 ng/mL. For the same molecule, in data set [4], the “CSF Cmax” value was determined as 0 ng/mL and the “Brain Cmax” value is listed as 0 ng/mL. Further, the “Microsomal (Human): percent of compound remaining” value in data set [5] is reported as 72%. In data set [6], the half-maximal effective concentration (EC50) was less than 1 nM and the Emax is less than 100%. Also, in data set [7], the “Microsomal (Rat): percent of compound remaining” value is on record as 3%. In addition, in data set [8], the EC50 was less than 1 nM and the Emax is less than 100%.
Turning to `CC(C)C(=O)N1CCC2(CCCN2C(=O)C(C)C)C1=O` (single isomer, unassigned) [GU-1, 1,1′-(6-oxo-1,7-diazaspiro[4.4]nonane-1,7-diyl)bis(2-methylpropan-1-one)], the “Plasma (Rat): percent of compound remaining” value in data set [1] amounted to 89%. Also, the “Plasma (Human): percent of compound remaining” value in data set [2] is recorded as 82%. Moreover, in data set [3], the AUC(0-t) is 1140 ng·h/mL, the clearance was 29.3 mL/min/kg, the half-life was 10.8 min and the Cmax came out at 5850 ng/mL. The Vd in data set [3] amounted to 0.36 L/kg. For the same molecule, in data set [4], the Tmax was found to be 15 min, the AUC(0-t) came to 2100 ng·h/mL, the bioavailability came out at 37% and the Cmax was 4620 ng/mL. Further, in data set [4], the “CSF Cmax” value is given as 0 ng/mL and the “Brain Cmax” value is 0 ng/mL. The “Microsomal (Human): percent of compound remaining” value in data set [5] came to 96%. Besides, in data set [6], the EC50 was less than 1 nM and the Emax was less than 100%. In addition, the “Microsomal (Rat): percent of compound remaining” value in data set [7] stood at 94%. Also, in data set [8], the “NMDAR2A A: % maximal [3H]MK-801 binding relative to 1 mM glycine” value turned out to be 0%.
As for `CC(C)CN1CCCC12CC=CCNC2=O` (single isomer, unassigned) [GI-2, 1-isobutyl-1,7-diazaspiro[4.6]undec-9-en-6-one], the “Plasma (Rat): percent of compound remaining” value in data set [1] is recorded as 104%. Moreover, in data set [2], the “Plasma (Human): percent of compound remaining” value is reported as 99%. For the same molecule, in data set [3], the AUC(0-t) worked out at 326 ng·h/mL, the clearance was determined as 101 mL/min/kg, the half-life is 19.2 min and the Cmax is 976 ng/mL. Further, the Vd in data set [3] stood at 2.25 L/kg. Also, in data set [4], the Tmax was 25.2 min, the AUC(0-t) turned out to be 150 ng·h/mL, the bioavailability came to 9% and the Cmax turned out to be 132 ng/mL. Further, in data set [4], the “CSF Cmax” value worked out at 205.53 ng/mL and the “Brain Cmax” value came to 97.39 ng/mL. In data set [5], the “Microsomal (Human): percent of compound remaining” value stood at 114%. In data set [6], the EC50 was less than 1 nM and the “NMDAR2B A: % maximal [3H]MK-801 binding relative to 1 mM glycine” value was “+ (<100%=+)”. In addition, in data set [7], the “Microsomal (Rat): percent of compound remaining” value is on record as 102%. For the same molecule, in data set [8], the EC50 is less than 1 nM and the “NMDAR2A A: % maximal [3H]MK-801 binding relative to 1 mM glycine” value was “+ (<100%=+)”.
`O=C1NCCCCC12CCCNC2` (single isomer, unassigned) [CF, 2,8-diazaspiro[5.6]dodecan-7-one]: in data set [1], the “Plasma (Rat): percent of compound remaining” value is reported as 91%. Besides, in data set [2], the “Plasma (Human): percent of compound remaining” value stood at 107%. In data set [3], the AUC(0-t) was 1110 ng·h/mL, the clearance came out at 29.9 mL/min/kg, the half-life is 108 min and the Cmax was found to be 1990 ng/mL. In addition, in data set [3], the Vd is 2.85 L/kg. In data set [4], the Tmax is 120 min, the AUC(0-t) came to 1830 ng·h/mL, the bioavailability was determined as 33% and the Cmax was found to be 556 ng/mL. Also, in data set [4], the “CSF Cmax” value worked out at 51.64 ng/mL and the “Brain Cmax” value came out at 48.22 ng/mL. The “Microsomal (Human): percent of compound remaining” value in data set [5] is listed as 91%. Further, in data set [6], the EC50 is less than 1 nM and the Emax was less than 100%. Also, the “Microsomal (Rat): percent of compound remaining” value in data set [7] turned out to be 88%. Moreover, in data set [8], the EC50 was less than 1 nM and the Emax is less than 100%.
As to `O=C1NCCCCC12CCCCN2` (single isomer, unassigned) [AZ, 1,8-diazaspiro[5.6]dodecan-7-one], the “Plasma (Rat): percent of compound remaining” value in data set [1] worked out at 101%. The “Plasma (Human): percent of compound remaining” value in data set [2] amounted to 101%. For the same molecule, in data set [3], the AUC(0-t) was found to be 15400 ng·h/mL, the clearance is 2.17 mL/min/kg, the half-life was 255 min and the Cmax was 17900 ng/mL. Besides, in data set [3], the Vd came to 0.17 L/kg. In addition, in data set [4], the Tmax stood at 60 min, the AUC(0-t) was determined as 74300 ng·h/mL, the bioavailability turned out to be 97% and the Cmax was 29100 ng/mL. Also, in data set [4], the “CSF Cmax” value is 5343.89 ng/mL and the “Brain Cmax” value is listed as 8074.7 ng/mL. Moreover, the “Microsomal (Human): percent of compound remaining” value in data set [5] was determined as 92%. Moreover, in data set [6], the EC50 was less than 1 nM and the Emax is less than 100%. The “Microsomal (Rat): percent of compound remaining” value in data set [7] amounted to 91%. For the same molecule, in data set [8], the EC50 was less than 1 nM and the Emax is less than 100%.
For the molecule `O=C1N(Cc2ccc(F)cc2)CC=CCC12CCCN2` (single isomer, unassigned) [GK-2, 7-(4-fluorobenzyl)-1,7-diazaspiro[4.6]undec-9-en-6-one], the “Plasma (Rat): percent of compound remaining” value in data set [1] came out at 97%. In addition, the “Plasma (Human): percent of compound remaining” value in data set [2] is listed as 92%. Moreover, the “Microsomal (Human): percent of compound remaining” value in data set [5] worked out at 94%. Besides, in data set [6], the EC50 was less than 1 nM and the “NMDAR2B A: % maximal [3H]MK-801 binding relative to 1 mM glycine” value is given as “+ (<100%=+)”. Besides, the “Microsomal (Rat): percent of compound remaining” value in data set [7] came to 46%. In data set [8], the “NMDAR2A B: log EC50” value is given as “−” and the “NMDAR2A A: % maximal [3H]MK-801 binding relative to 1 mM glycine” value was “− (−=0)”.
